The NIST ThermoML archive (doi:10.1021/je8002223)
Numbers after ± are expanded uncertainties.

How the values were obtained:
[1] = Molar enthalpy of transition or fusion
[2] = DTA

Molar enthalpy of transition or fusion ([1]; Crystal) | Normal melting temperature ([2]; Crystal) | Molar enthalpy of transition or fusion ([1]; Crystal 1) | Molar enthalpy of transition or fusion ([1]; Crystal 2) | Triple point temperature ([2]; Crystal 1) | Triple point temperature ([2]; Crystal 2) | Compound
13.3 ± 1.43 kcal/mol | 813 ± 2 °C | – | – | – | – | [Cl][Ce]([Cl])[Cl] [cerium trichloride]
– | – | 4.85 ± 0.574 kcal/mol | 0.908 ± 0.191 kcal/mol | 918 ± 2 K | 743 ± 2 K | [Cl-].[Cs+] [cesium chloride]
